In ChEMBL document CHEMBL1130303, “Evaluation of piperidinoethoxy moiety as an antiestrogenic substituent in non-steroidal anti-estrogens: Fertility regulation” (1997):
Activity calls are given as the source filed them. The rule behind the calls is not given here.

Key:
Rattus norvegicus [1] = organism: Rattus norvegicus; assay: Antifertility activity at maximal effective dose in adult female rat in an antiestrogen assay; Inactive; format: functional, organism-based
Rattus norvegicus [2] = organism: Rattus norvegicus; assay: Antifertility activity at maximal effective dose in adult female rat in an antiestrogen assay; format: functional
[3] = biological target: Estrogen receptor (Rattus norvegicus) (UniProt P06211+Q62986); assay: Relative Binding Affinity (RBA) for estrogen receptor in ovariectomized rats; format: protein assay
Rattus norvegicus [4] = assay: Antifertility activity at maximal effective dose in adult female rat in an antiestrogen assay; Inactive at 10 mg/kg dose; format: functional, organism-based; design: dose 10 mg/kg
Rattus norvegicus [5] = assay: Antifertility activity at maximal effective dose in adult female rat in an antiestrogen assay; Inactive at 5 mg/kg dose; format: functional, organism-based; design: dose 5 mg/kg
Rattus norvegicus [6] = assay: Antifertility activity at maximal effective dose in adult female rat in an antiestrogen assay at 10 mg/kg; format: functional

SMILES | relative binding affinity (RBA) [3] | MED100 (Rattus norvegicus [2]) [mg/kg] | further results
CC1(C)Oc2cc(O)ccc2[C@@H](c2ccc(OCCN3CCCCC3)cc2)[C@H]1c1ccccc1 | – | – | MED100 (Rattus norvegicus [1]): inactive
COc1ccc2c(c1)OC(C)(C)C(c1ccccc1)=C2c1ccc(OCCN2CCCC2)cc1 | 0.86 | 5 | –
COc1ccc2c(c1)OC(C)(C)C(c1ccccc1)=C2c1ccc(OCCN2CCCCC2)cc1 | 0.53 | 10 | –
CC1(C)Oc2cc(O)ccc2C(c2ccc(OCCN3CCCC3)cc2)=C1c1ccccc1 | 9.2 | 15 | –
CC1(C)Oc2cc(O)ccc2[C@@H](c2ccc(OCCN3CCCC3)cc2)[C@H]1c1ccccc1 | – | – | MED100 (Rattus norvegicus [1]): inactive
CC1(C)Oc2cc(O)ccc2C(c2ccc(OCCN3CCCCC3)cc2)=C1c1ccccc1 | 2.11 | – | MED100 (Rattus norvegicus [5]): inactive
COc1ccc2c(c1)OC(C)(C)[C@H](c1ccccc1)[C@@H]2c1ccc(OCCN2CCCCC2)cc1 | – | – | Activity (Rattus norvegicus [6]): 90%

Continued, in another order:

relative binding affinity (RBA) [3] | SMILES | MED100 (Rattus norvegicus [2]) [mg/kg] | further results
112 | CC1(C)Oc2cc(O)ccc2[C@@H](c2ccc(OCCN3CCCC3)cc2)[C@@H]1c1ccccc1 | 0.25 | –
3.77 | COc1ccc2c(c1)OC(C)(C)[C@@H](c1ccccc1)[C@@H]2c1ccc(OCCN2CCCCC2)cc1 | 0.1 | –
1.45 | COc1ccc2c(c1)OCC(c1ccccc1)C2c1ccc(OCCN2CCCCC2)cc1 (stereo not given) | 0.25 | –
50.1 | CC1(C)Oc2cc(O)ccc2[C@@H](c2ccc(OCCN3CCCCC3)cc2)[C@@H]1c1ccccc1 | 0.2 | –
0.16 | COc1ccc2c(c1)OC(C)(C)[C@H](c1ccccc1)[C@@H]2c1ccc(OCCN2CCCC2)cc1 | – | MED100 (Rattus norvegicus [4]): inactive
5.24 | COc1ccc2c(c1)OC(C)(C)[C@@H](c1ccccc1)[C@@H]2c1ccc(OCCN2CCCC2)cc1 [LEVORMELOXIFENE] | 0.25 | –
7.35 | COc1ccc2c(c1)OCC(c1ccccc1)C2c1ccc(OCCN2CCCC2)cc1 (stereo not given) | 0.1 | –
